According to patent publication US7378415B2, “Benzoxazine and quinoxaline derivatives and uses thereof” (Roche Palo Alto LLC, priority 2004, dated 2008):
Structures can show the parent of a compound that is named as a salt.

Molecular target: T1, recombinant human 5-HT6 receptor (Homo sapiens, UniProt P50406)
T1 construct: expressed in transfected cells
Assay: Radioligand binding, [3H]LSD competition in HEK293 cell membranes
Settings: [3H]LSD displacement, pH 7.4, 37° C., read-out: pKi for the 5-HT6 receptor (converted)
Method: (§1) The binding activity of compounds of this invention in vitro was determined as follows. Duplicate determinations of 5-HT6 ligand affinity were made by competing for binding of [^3H]LSD in cell membranes derived from HEK293 cells stably expressing recombinant human 5-HT6 receptor. Duplicate determinations of 5-HT2A ligand affinity were made by competing for binding of [^3H]Ketanserin (3-(2-(4-(4-fluorobenzoyl)piperidinol)ethyl)-2,4(1H,3H)-quinazolinedione) in cell membranes derived from CHO-K1 cells stably expressing recombinant human 5-HT2A receptor.
(§2) Assay tubes containing [^3H] LSD or [^3H]Ketanserin (5 nM), competing ligand, and membrane were incubated in a shaking water bath for 75 min. at 37° C. (for 5-HT6) or 60 min. at 32° C. (for 5-HT2A), filtered onto Packard GF-B plates (pre-soaked with 0.3% PEI) using a Packard 96 well cell harvester and washed 3 times in ice cold 50 mM Tris-HCl. Bound [^3H] LSD or [^3H]Ketanserin were determined as radioactive counts per minute using Packard TopCount.
(§3) Displacement of [^3H]LSD or [^3H]Ketanserin from the binding sites was quantified by fitting concentration-binding data to a 4-parameter logistic equation:
(§4) [formula] where Hill is the Hill slope, [ligand] is the concentration of competing radioligand and IC50 is the concentration of radioligand producing half-maximal specific binding of radioligand. […]

T1 sequence (P50406 whole entry): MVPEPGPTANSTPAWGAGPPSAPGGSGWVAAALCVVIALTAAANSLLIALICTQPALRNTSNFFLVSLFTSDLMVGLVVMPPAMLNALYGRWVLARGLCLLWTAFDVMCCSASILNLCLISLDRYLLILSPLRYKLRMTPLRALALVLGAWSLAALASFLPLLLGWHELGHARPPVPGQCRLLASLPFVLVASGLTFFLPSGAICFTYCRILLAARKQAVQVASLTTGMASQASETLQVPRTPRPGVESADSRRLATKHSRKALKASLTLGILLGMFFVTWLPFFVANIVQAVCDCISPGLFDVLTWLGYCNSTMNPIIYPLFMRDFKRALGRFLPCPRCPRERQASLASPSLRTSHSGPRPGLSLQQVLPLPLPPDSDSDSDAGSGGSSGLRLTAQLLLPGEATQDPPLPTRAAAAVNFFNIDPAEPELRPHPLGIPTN

Ki [nM] | SMILES
~0.105 | O=S(=O)(c1ccccc1)c1ccc2c(c1)OCCN2C1CCNCC1 [Compound 22, 7-Benzenesulfonyl-4-piperidin-4-yl-3,4-dihydro-2H-benzo[1,4]oxazine]

Molecular target: T2, recombinant human 5-HT2A receptor (Homo sapiens, UniProt P28223)
T2 construct: expressed in transfected cells
T2 sequence (P28223 whole entry): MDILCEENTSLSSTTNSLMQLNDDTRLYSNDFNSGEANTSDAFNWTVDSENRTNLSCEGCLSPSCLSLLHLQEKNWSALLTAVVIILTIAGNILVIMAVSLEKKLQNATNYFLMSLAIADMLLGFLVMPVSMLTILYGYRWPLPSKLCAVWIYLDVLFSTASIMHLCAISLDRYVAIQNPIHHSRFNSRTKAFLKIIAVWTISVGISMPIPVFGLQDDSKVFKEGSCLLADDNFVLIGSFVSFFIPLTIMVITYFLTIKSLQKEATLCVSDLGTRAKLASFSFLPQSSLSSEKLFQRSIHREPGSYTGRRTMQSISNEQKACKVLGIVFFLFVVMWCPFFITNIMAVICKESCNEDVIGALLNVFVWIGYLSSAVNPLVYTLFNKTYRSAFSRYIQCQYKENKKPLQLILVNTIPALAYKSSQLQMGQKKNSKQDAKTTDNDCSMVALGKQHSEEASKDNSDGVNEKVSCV
Assay: Radioligand binding, [3H]Ketanserin competition in CHO-K1 cell membranes
Settings: [3H]Ketanserin displacement, pH 7.4, 32° C., read-out: pKi for the 5-HT2A receptor (converted)
Method: as §1, §2, §3, §4

Ki [nM] | SMILES
~8.13 | O=S(=O)(c1ccccc1)c1ccc2c(c1)OCCN2C1CCNCC1 [Compound 22, 7-Benzenesulfonyl-4-piperidin-4-yl-3,4-dihydro-2H-benzo[1,4]oxazine]

Test system: not given
Assay: not given
Settings: not given

melting point [°C] | SMILES
172.4 to 181.3 | NCCNC(=O)N1CCOc2ccc(S(=O)(=O)c3ccccc3)cc21
44 to 47 | O=C(CC1=NCCN1)N1CCOc2cc(S(=O)(=O)c3ccccc3)ccc21
61.2 to 67.3 | N=C(N)NC(=O)N1CCOc2cc(S(=O)(=O)c3ccccc3)ccc21
61.5 to 64.4 | O=S(=O)(c1ccccc1)c1ccc2c(c1)OCCN2CCn1ccnc1
114 to 116.1 | O=C(CC1=NCCN1)N1CCOc2ccc(S(=O)(=O)c3ccccc3)cc21
232.9 to 235.3 | CN(C)CCN1C(=O)COc2cc(S(=O)(=O)c3ccccc3)ccc21 (as salt: HCl)
114 to 116.1 | O=S(=O)(c1ccccc1)c1ccc2c(c1)N(CC1=NCCN1)CCO2 (as salt: HCl)
194 to 196.4 | CN(C)CCCN1C(=O)COc2cc(S(=O)(=O)c3ccccc3)ccc21 (as salt: HCl)
202.3 to 203.6 | O=C(CC1=NCCN1)N1CCOc2cc(S(=O)(=O)c3ccccc3)ccc21 (as salt: HCl)
261 to 265.1 | NCCN1CCOc2cc(S(=O)(=O)c3ccccc3)ccc21 (as salt: HCl)
179 to 180 | CN(C)CCCCN1C(=O)COc2cc(S(=O)(=O)c3ccccc3)ccc21 (as salt: HCl)
113.7 to 116 | O=C1COc2cc(S(=O)(=O)c3ccccc3)ccc2N1CC1=NCCN1 (as salt: HCl)
250 to 252 | O=C1COc2ccc(S(=O)(=O)c3ccccc3)cc2N1CC1=NCCN1 (as salt: HCl)
242.9 to 245.9 | NCCN1CCOc2ccc(S(=O)(=O)c3ccccc3)cc21 (as salt: HCl)
208.3 to 214.7 | CNCCC(=O)N1CCOc2ccc(S(=O)(=O)c3ccccc3)cc21 (as salt: hydrochloride)
233 to 235.5 | CNCC(=O)N1CCOc2ccc(S(=O)(=O)c3ccccc3)cc21 (as salt: hydrochloride)
199 to 203 | CN(C)CC(=O)N1CCOc2ccc(S(=O)(=O)c3ccccc3)cc21 (as salt: hydrochloride)
220.9 to 221.3 | NCCNC(=O)N1CCOc2cc(S(=O)(=O)c3ccccc3)ccc21 (as salt: hydrochloride)
148.5 to 151.6 | N=C(N)NC(=O)N1CCOc2cc(S(=O)(=O)c3ccccc3)ccc21 (as salt: hydrochloride)
188.3 to 193.2 | CNCCCN1CCOc2cc(S(=O)(=O)c3ccccc3)ccc21 (as salt: hydrochloride)
182 to 186.6 | O=C(C1CNC1)N1CCOc2cc(S(=O)(=O)c3ccccc3)ccc21 (as salt: hydrochloride)
206.9 to 209.1 | NCCN1C(=O)COc2cc(S(=O)(=O)c3ccccc3)ccc21 (as salt: hydrochloride)
109.2 to 110.5 | O=C(C1CCNC1)N1CCOc2cc(S(=O)(=O)c3ccccc3)ccc21 (centres unmarked) (as salt: hydrochloride)
130.5 to 136.7 | O=C(C1CCCNC1)N1CCOc2cc(S(=O)(=O)c3ccccc3)ccc21 (centres unmarked) (as salt: hydrochloride)
122.8 to 127.6 | O=S(=O)(c1ccccc1)c1ccc2c(c1)OCCN2C1CCNC1 (centres unmarked) (as salt: hydrochloride)
112.7 to 120.4 | CC1(C)CN(c2ccncc2)c2ccc(S(=O)(=O)c3ccccc3)cc2O1 (as salt: hydrochloride)
284.9 to 296.3 | CC1(C)CN(C2CCNCC2)c2ccc(S(=O)(=O)c3ccccc3)cc2O1 (as salt: hydrochloride)
